Results as given in patent publication US9221834B2 (Merck Sharp & Dohme Corp., priority 2010, dated 2015).

Columns and labels:
[1] = torcetrapib and atorvastatin concomitantly compared with atorvastatin alone; cited from earlier work
[2] = biological target: T1, CETP (Homo sapiens, UniProt P11597); test: Scintillation Proximity Assay (SPA) for CETP Activity; type: biochemical
T1 construct: made in house
T1 sequence (P11597 18-493): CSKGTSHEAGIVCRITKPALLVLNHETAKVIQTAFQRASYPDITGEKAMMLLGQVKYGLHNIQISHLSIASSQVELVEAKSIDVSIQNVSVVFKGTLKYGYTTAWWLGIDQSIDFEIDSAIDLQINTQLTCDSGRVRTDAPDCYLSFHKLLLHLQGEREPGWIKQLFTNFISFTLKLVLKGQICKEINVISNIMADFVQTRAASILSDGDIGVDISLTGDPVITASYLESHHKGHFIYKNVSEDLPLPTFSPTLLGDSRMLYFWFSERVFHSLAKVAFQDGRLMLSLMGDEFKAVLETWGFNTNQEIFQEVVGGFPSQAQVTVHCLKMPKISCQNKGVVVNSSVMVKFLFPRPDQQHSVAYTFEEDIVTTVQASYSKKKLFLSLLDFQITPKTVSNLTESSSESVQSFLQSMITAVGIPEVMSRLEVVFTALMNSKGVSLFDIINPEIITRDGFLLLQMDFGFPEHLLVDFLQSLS
Description: Protocol: Scintillation Proximity Assay (SPA) for CETP Activity
First low density lipoprotein (LDL) (Meridian) was biotinylated by incubating LDL with biotin for 1 hour on ice, after which it was dialyzed to remove free biotin. Then compounds at varying concentrations were incubated with 15 nM CETP (reagent production group, In Vitro Pharmacology, MRL Rahway) and 50 ug/ml of the biotinylated LDL in 50 mM HEPES, 150 mM NaCl, pH 7.4, for 1 hour at 37° C. The reaction was started by adding ^3H-cholesterol ester high density lipoprotein (HDL) (American Radiochemicals Corp) at a concentration of ˜0.6 nM. The reaction proceeded for 2 hours at 37° C., after which time it was quenched by the addition of 12% acetic acid. PVT streptavadin-coated scintillation proximity beads, which had been brought to room temperature, were then added at a concentration of 4 mg/ml. The assay was then mixed and counted after one half hour in a Microbeta plate reader.

IC50 [2] [nM]	SMILES	incidence of mortality [1]
–	CCOC(=O)N1c2ccc(C(F)(F)F)cc2[C@@H](N(Cc2cc(C(F)(F)F)cc(C(F)(F)F)c2)C(=O)OC)C[C@H]1CC [torcetrapib, Torcetrapib]	higher incidence of mortality
55.8	COc1cc(F)c(C(C)C)cc1-c1ccc(-n2cccn2)nc1CN1C(=O)O[C@H](c2cc(C(F)(F)F)cc(C(F)(F)F)c2)[C@@H]1C [Example 299, (4S,5R)-5-[3,5-bis(trifluoromethyl)phenyl]-3-({3-[4-fluoro-2-methoxy-5-(propan-2-yl)phenyl]-6-(1H-pyrazol-1-yl)pyridin-2-yl}methyl)-4-methyl-1,3-oxazolidin-2-one]	–
